# Values of other authors as cited in PubChem BioAssay AID1259409 (Chemical Carcinogenesis Research Information System (CCRIS), 2018).
# Tested on: rodent chemically induced tumor inhibition, incidence and multiplicity
# Experiment: CCRIS tumor inhibitor studies
# Details: Species: RAT; for tumour outcome (control, treated, inhibition, significance): Carcinogen: DIETHYLNITROSAMINE, 55-18-5, N-METHYL-N-NITROSOUREA, 684-93-5, N-BUTYL-N-(4-HYDROXYBUTYL)NITROSAMINE, 3817-11-6, DIMETHY, Dose [Inhibitor]: 0, Route [Inhibitor]: ORAL, Strain/Sex: F344/MALE, Dose [Carcinogen]: 100 MG/KG BW DEN ONCE FOLLOWED BY 20 MG/KG BW MNU 4 TIMES AND 0.05% BBN IN DRINKING WATER DURING FIRST 2 WK THEN 40 MG/K, Promoter: NONE USED
smiles,measurement,setting,value
CCCCCCOc1cc(C)c(O)c(C)c1C,"tumour outcome (control, treated, inhibition, significance)","1% IN THE DIET FOR 24 WK BEGINNING 1 DAY POST CARCINOGEN TREATMENT (STUDY DURATION: 28 WK), Target Tissue: Type of Lesion: SMALL INTESTINE: ADENOMA","33%, 0%, 100%, p<0.05"
same,"tumour outcome (control, treated, inhibition, significance)","1% IN THE DIET FOR 24 WK BEGINNING 1 DAY POST CARCINOGEN TREATMENT (STUDY DURATION: 28 WK), Target Tissue: Type of Lesion: THYROID: CARCINOMA","7%, 8%, -14%, not significant"
same,"tumour outcome (control, treated, inhibition, significance)","1% IN THE DIET FOR 24 WK BEGINNING 1 DAY POST CARCINOGEN TREATMENT (STUDY DURATION: 28 WK), Target Tissue: Type of Lesion: URINARY BLADDER: CARCINOMA","7%, 0%, 100%, not significant"
same,"tumour outcome (control, treated, inhibition, significance)","1% IN THE DIET FOR 24 WK BEGINNING 1 DAY POST CARCINOGEN TREATMENT(STUDY DURATION: 28 WK), Target Tissue: Type of Lesion: SMALL INTESTINE: CARCINOMA","7%, 0%, 100%, not significant"
same,"tumour outcome (control, treated, inhibition, significance)","1% IN THE DIET FOR 30 D BEGINNING 1 D PRIOR TO CARCINOGEN TREATMENT (STUDY DURATION: 28 WK), Target Tissue: Type of Lesion: URINARY BLADDER: PAPILLOMA","7%, 21%, -200%, not significant"
same,"tumour outcome (control, treated, inhibition, significance)","1% IN THE DIET FOR 30 D BEGINNING 1 DAY PRIOR TO CARCINOGEN TREATMENT (STUDY DURATION: 28 WK), Target Tissue: Type of Lesion: LARGE INTESTINE: CARCINOMA","7%, 0%, 100%, not significant"
same,"tumour outcome (control, treated, inhibition, significance)","1% IN THE DIET FOR 30 D BEGINNING 1 DAY PRIOR TO CARCINOGEN TREATMENT (STUDY DURATION: 28 WK), Target Tissue: Type of Lesion: SMALL INTESTINE: ADENOMA","33%, 14%, 58%, not significant"
same,"tumour outcome (control, treated, inhibition, significance)","1% IN THE DIET FOR 30 D BEGINNING 1 DAY PRIOR TO CARCINOGEN TREATMENT (STUDY DURATION: 28 WK), Target Tissue: Type of Lesion: THYROID: CARCINOMA","7%, 0%, 100%, not significant"
same,"tumour outcome (control, treated, inhibition, significance)","1% IN THE DIET FOR 30 D BEGINNING 1 DAY PRIOR TO CARCINOGEN TREATMENT (STUDY DURATION: 28 WK), Target Tissue: Type of Lesion: URINARY BLADDER: CARCINOMA","7%, 14%, -100%, not significant"
same,outcome,"Carcinogen: SUBCUTANEOUS, Dose [Inhibitor]: 1,2-DIMETHYLHYDRAZINE [540-73-8], Route [Inhibitor]: 0.125% IN DIET FOR 32 WK BEGINNING 1 WK POST LAST CARCINOGEN DOSE (STUDY DURATION: 36 WK), Strain/Sex: ORAL, Target Tissue: Type of Lesion: 20/21 (95%), 21/21 (100%), -5%, NOT SIGNIFICANT, Dose [Carcinogen]: 2-AMINO-1-METHYL-6-PHENYLIMIDAZO[4,5-B]PYRIDINE [105650-23-5], Promoter: ORAL","9.1, 6.2, 32%, not significant"
